The target in this experiment is T1, hASIC3 (Homo sapiens, UniProt Q9UHC3).
T1 sequence (Q9UHC3 1-531): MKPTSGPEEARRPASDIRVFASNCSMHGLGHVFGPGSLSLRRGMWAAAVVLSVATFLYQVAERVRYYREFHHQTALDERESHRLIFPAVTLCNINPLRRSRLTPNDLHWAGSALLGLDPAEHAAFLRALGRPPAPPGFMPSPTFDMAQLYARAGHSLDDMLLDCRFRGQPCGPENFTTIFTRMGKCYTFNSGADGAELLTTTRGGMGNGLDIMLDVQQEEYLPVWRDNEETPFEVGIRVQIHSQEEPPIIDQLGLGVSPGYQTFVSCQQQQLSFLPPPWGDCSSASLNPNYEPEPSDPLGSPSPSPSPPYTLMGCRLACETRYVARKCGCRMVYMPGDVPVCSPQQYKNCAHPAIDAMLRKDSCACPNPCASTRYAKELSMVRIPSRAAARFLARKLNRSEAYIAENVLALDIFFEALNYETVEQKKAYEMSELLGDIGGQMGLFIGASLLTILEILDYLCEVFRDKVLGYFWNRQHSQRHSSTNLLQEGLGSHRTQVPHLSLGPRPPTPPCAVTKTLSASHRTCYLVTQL
The experiment is described as follows: Whole-cell patch clamp of acid-evoked currents in CHO cells transfected with hASIC3. The format is cell-based. Further details: expressed in transfected cells. The procedure:
All experiments are performed at room temperature (20-25° C.) in voltage clamp using conventional whole cell patch clamp methods (Neher, E., et al. (1978) Pfluegers Arch 375:219-228).
Coverslips with the cells are transferred to a 15 μl experimental chamber mounted on the stage of an inverted microscope (IMT-2, Olympus) supplied with Nomarski optics. Cells are continuously superfused with extracellular saline at a rate of 2.5 ml/min. After giga-seal formation, the whole cell configuration is attained by suction. The cells are held at a holding voltage of −60 mV and at the start of each experiment the current is continuously measured for 45 s to ensure a stable baseline. […] Current amplitudes are measured at the peak of the responses, and effect of the compounds is calculated as the amplitude at compound equilibrium divided by the amplitude of the current evoked by the pulse just before the compound was included. […]
FIG. 3 compares the selectivity of Compound R for human ASIC1a versus human ASIC3, both stably transfected in CHO cells. […] FIG. 3C compares the dose-response relationship of Compound R on hASIC1a and hASIC3 [determined by measuring the area under the curve of the response (total charge transfer) and normalized to the control response].
Background: Patch clamp records ionic current or voltage across a cell membrane.

From US20070197509A1, “Compositions and methods for modulating gated ion channels” (PainCeptor Pharma Corporation, priority 2005, published 2007) come the findings set out here.

Structures are written as SMILES. Entries after “also recorded” stand apart in the source; their conditions may differ.

For the compound `Cc1cc(OC2CCN(Cc3ccccc3)CC2)c2ccccc2n1` [Compound R, 4-(1-benzyl-piperidin-4-yloxy)-2-methyl-quinoline], where the note is “30 μM, CHO cells”, the “effect on acid evoked hASIC3 current amplitude (FIG. 3B)” value is listed as “failed to reduce the amplitude of the current; also recorded: failed to inhibit”. Further, under “patch clamp (PC), Table A”, the “Biological Data (IC50 uM) h3 (PC)” value was “inactive”.
